# Experiments:
# [1] = biological target: T1, D(2) dopamine receptor (Homo sapiens, UniProt P14416)
# Description: Binding affinity to dopamine D2
# [2] = biological target: T2, D(3) dopamine receptor (Homo sapiens, UniProt P35462); experiment: biochemical
# Description: (§1) Displacement of [3H]spiperone from human dopamine D3 expressed in CHO cell membrane
# [3] = biological target: T3, D(4) dopamine receptor (Homo sapiens, UniProt P21917); experiment: biochemical
# T3 sequence (P21917 whole entry): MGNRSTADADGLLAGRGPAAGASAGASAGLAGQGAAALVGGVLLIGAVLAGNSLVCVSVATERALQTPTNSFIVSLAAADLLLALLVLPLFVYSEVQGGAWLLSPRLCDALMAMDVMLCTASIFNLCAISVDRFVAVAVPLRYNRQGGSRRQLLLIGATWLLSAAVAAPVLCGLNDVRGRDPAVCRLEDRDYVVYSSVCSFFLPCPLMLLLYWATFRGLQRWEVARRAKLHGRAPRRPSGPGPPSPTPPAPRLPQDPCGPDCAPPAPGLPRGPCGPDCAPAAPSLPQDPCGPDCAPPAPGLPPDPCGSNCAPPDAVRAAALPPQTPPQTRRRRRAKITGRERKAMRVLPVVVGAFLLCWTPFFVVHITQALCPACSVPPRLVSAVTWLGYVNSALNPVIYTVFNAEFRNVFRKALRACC
# Description: Displacement of [3H]spiperone from human dopamine D4.4 expressed in CHO cell membrane
# [4] = biological target: T2, D(3) dopamine receptor
# Description: as §1
# [5] = biological target: T1, D(2) dopamine receptor; experiment: Displacement of [3H]spiperone from human dopamine D2(short) expressed in CHO cell membrane
# [6] = biological target: D(1A) dopamine receptor (Sus scrofa, UniProt P50130); experiment: Displacement of [3H][…] from porcine dopamine D1 in porcine striatal membrane; format: cell membranes, Striatum
# Chain of D(1A) dopamine receptor (P50130 whole entry): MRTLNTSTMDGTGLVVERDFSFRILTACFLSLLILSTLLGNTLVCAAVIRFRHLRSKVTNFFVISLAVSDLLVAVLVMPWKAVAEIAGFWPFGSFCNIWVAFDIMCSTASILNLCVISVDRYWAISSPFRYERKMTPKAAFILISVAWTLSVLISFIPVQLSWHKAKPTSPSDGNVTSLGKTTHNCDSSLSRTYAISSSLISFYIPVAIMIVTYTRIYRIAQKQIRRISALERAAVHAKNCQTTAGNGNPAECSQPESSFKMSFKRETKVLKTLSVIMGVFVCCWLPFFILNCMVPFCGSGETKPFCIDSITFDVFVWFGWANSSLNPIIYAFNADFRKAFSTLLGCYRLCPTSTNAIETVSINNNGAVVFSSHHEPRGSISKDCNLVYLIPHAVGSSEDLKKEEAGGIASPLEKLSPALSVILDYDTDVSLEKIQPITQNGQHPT
# [7] = biological target: T4, 5-hydroxytryptamine receptor 1A (Homo sapiens, UniProt P08908); experiment: Displacement of [3H]8-OH-DPAT from human 5HT1A receptor expressed in CHO cells; format: cell-based
# T4 sequence (P08908 whole entry): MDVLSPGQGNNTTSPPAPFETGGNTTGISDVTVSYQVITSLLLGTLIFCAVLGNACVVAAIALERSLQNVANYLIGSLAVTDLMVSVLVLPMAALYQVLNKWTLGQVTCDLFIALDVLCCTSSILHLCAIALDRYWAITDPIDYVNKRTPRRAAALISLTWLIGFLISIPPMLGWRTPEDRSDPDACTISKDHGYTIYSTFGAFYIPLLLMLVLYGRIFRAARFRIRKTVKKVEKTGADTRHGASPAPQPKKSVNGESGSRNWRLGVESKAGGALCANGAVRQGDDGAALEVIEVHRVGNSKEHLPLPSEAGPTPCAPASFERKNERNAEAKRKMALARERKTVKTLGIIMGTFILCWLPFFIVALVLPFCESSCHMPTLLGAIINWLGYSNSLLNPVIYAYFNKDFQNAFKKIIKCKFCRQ
# [8] = biological target: T1, D(2) dopamine receptor; experiment: Displacement of [3H]spiperone from human dopamine D2(long) expressed in CHO cell membrane
# [9] = biological target: Serotonin 2 (5-HT2) receptor (Homo sapiens, UniProt P41595+P28223+P28335); experiment: Displacement of [3H]ketanserin from human 5HT2 receptor expressed in CHO cells; format: cell-based
# T1 sequence (P14416 whole entry): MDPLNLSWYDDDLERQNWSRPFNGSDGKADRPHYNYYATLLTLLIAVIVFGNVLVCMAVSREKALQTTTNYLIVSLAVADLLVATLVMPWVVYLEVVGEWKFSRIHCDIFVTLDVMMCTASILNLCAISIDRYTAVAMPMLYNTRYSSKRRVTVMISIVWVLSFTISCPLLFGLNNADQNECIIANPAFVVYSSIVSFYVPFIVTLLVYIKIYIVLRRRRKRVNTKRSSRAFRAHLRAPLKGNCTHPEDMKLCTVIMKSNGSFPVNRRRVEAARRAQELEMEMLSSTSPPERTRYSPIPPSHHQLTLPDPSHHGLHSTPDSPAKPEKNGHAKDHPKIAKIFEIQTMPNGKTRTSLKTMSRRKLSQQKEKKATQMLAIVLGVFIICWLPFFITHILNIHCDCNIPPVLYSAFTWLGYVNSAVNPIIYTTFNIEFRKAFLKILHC
# T2 sequence (P35462 whole entry): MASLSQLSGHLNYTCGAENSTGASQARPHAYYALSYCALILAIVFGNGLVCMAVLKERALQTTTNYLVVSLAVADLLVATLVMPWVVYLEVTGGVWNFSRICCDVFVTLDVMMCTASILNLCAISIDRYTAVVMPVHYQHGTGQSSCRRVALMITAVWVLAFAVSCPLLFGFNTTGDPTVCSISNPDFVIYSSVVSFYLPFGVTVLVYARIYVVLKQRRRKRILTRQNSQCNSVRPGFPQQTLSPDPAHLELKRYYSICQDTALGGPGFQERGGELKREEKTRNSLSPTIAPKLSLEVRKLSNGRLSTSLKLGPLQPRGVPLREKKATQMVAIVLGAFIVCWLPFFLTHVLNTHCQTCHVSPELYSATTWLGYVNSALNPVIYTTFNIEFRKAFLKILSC
SMILES,Ki [1] [nM],Ki [2] [nM],Ki [3] [nM],further results
O=C(NCCCCN1CCN(c2cccc(Cl)c2Cl)CC1)c1cc2cc(Br)ccc2[nH]1,2290,0.741,603,
N#Cc1ccc2cc(C(=O)NCCCCN3CCN(c4cccc(Cl)c4Cl)CC3)[nH]c2c1,339,0.355,631,
O=C(NCCCCN1CCN(c2ccccc2Cl)CC1)c1ccc2ccccc2c1,457,1,200,
Clc1ccc(N2CCN(Cc3cnn4c(I)cccc34)CC2)cc1,7590,2690,,
O=C(NCCCCN1CCN(c2ccccc2Cl)CC1)c1ccc(Cl)cc1,468,1.7,282,
C#Cc1ccc2sc(C(=O)NCCCCN3CCN(c4ccccc4OC)CC3)cc2c1,407,0.389,30.9,
COc1ccc(C(=O)NCCCCN2CCN(c3ccccc3Cl)CC2)cc1OC,282,3.09,170,
COc1ccccc1N1CCN(CCCCNC(=O)c2ccc(-c3ccc([18F])nc3)cc2)CC1,,0.45,34,Ki [5]: 12 nM; Ki [6]: 1300 nM; Ki [7]: 21 nM; Ki [8]: 15 nM; Ki [9]: 760 nM
COc1ccccc1N1CCN(CCCCNC(=O)c2ccc(-c3cccc([18F])n3)cc2)CC1,,0.37,28,Ki [5]: 16 nM; Ki [6]: 870 nM; Ki [7]: 16 nM; Ki [8]: 27 nM; Ki [9]: 450 nM
OCc1ccc2c(CN3CCN(c4ccc(Cl)cc4)CC3)cnn2c1,27500,,19.5,
O=C(NCCCCN1CCN(c2cccc(Cl)c2Cl)CC1)c1cc2ccccc2[nH]1,,0.661,,
O=C(NCCCCN1CCN(c2ccccc2Cl)CC1)c1ccc(-c2ccccc2)cc1,129,0.28,240,
COc1ccccc1N1CCN(CCCCNC(=O)c2cc3cc(C#N)ccc3o2)CC1,,4.27,,
O=C(NCCCCN1CCN(c2cccc(Cl)c2Cl)CC1)c1cc2cc(Br)ccc2o1,10000,3.47,3090,
Cc1cccc2c(CN3CCN(c4ccc(Cl)cc4)CC3)cnn12,,3720,,

# Continued, in another order:
Ki [1] [nM],Ki [2] [nM],Ki [3] [nM],SMILES,further results
4.9,15.1,41.7,COc1ccccc1N1CCN(CCCCCNC(=O)c2nnn(Cc3ccccc3Br)c2C)CC1,
67.6,,44.7,COc1ccccc1N1CCN(CCCCNC(=O)c2cc3cc(C#N)ccc3s2)CC1,Ki [4]: 0.457 nM
42.7,12.9,129,CCCc1c(C(=O)NCCCCN2CCN(c3ccccc3OC)CC2)nnn1Cc1ccc(OC)cc1,
200,0.38,151,C#Cc1ccc2cc(C(=O)NCCCCN3CCN(c4ccccc4OC)CC3)sc2c1,
110,0.245,15.8,COc1ccccc1N1CCN(CCCCNC(=O)c2cc3cc(Br)ccc3[nH]2)CC1,
57.5,11,302,CCCc1c(C(=O)NCCCCN2CCN(c3ccccc3OC)CC2)nnn1Cc1ccccc1,
158,,39.8,COc1ccccc1N1CCN(CCCCNC(=O)c2cc3ccc(C#N)cc3[nH]2)CC1,Ki [4]: 0.251 nM
141,0.575,24,COc1ccccc1N1CCN(CCCCNC(=O)c2cc3cc(C#N)ccc3[nH]2)CC1,
17,87.1,269,COc1ccc(Cn2nnc(C(=O)NCCCCCN3CCN(c4ccccc4OC)CC3)c2C)cc1,
5.25,7.41,39.8,CCCc1c(C(=O)NCCCCCN2CCN(c3ccccc3OC)CC2)nnn1Cc1ccccc1Br,
9.33,15.8,158,COc1ccccc1N1CCN(CCCCCNC(=O)c2nnn(Cc3ccccc3)c2C)CC1,
38,33.1,0.589,c1ccc(C2CCN(Cc3cnn(-c4ccccc4)c3)CC2)cc1,
95.5,,17,COc1ccccc1N1CCN(CCCCNC(=O)c2cc3cc(Br)ccc3o2)CC1,Ki [4]: 0.692 nM
219,93.3,3.24,c1ccc(C2CCN(Cc3cn(-c4ccccc4)nn3)CC2)cc1,
229,67.6,977,COc1ccccc1N1CCN(CCCCNC(=O)c2nnn(Cc3ccccc3)c2C)CC1,
9.12,33.9,288,COc1ccc(Cn2nnc(C(=O)NCCCCCN3CCN(c4cccc(Cl)c4Cl)CC3)c2C)cc1,
10,8.51,251,Cc1c(C(=O)NCCCCCN2CCN(c3cccc(Cl)c3Cl)CC2)nnn1Cc1ccccc1,
38.9,4.27,282,Cc1c(C(=O)NCCCCN2CCN(c3cccc(Cl)c3Cl)CC2)nnn1Cc1ccccc1,
61.7,32.4,91.2,COc1ccccc1N1CCN(CCCCNC(=O)c2nnn(Cc3ccccc3Br)c2C)CC1,
21.9,3.47,75.9,CCCc1c(C(=O)NCCCCN2CCN(c3ccccc3OC)CC2)nnn1Cc1ccccc1Br,
14.1,2.4,219,CCCc1c(C(=O)NCCCCN2CCN(c3cccc(Cl)c3Cl)CC2)nnn1Cc1ccccc1,
55,28.8,282,COc1ccc(Cn2nnc(C(=O)NCCCCN3CCN(c4ccccc4OC)CC3)c2C)cc1,

# Reference: ChEMBL document CHEMBL1141401, “Structure-selectivity investigations of D2-like receptor ligands by CoMFA and CoMSIA guiding the discovery of D3 selective PET radioligands” (J Med Chem, 2007)
